From patent US20210255193A1, “LYSINE REACTIVE PROBES AND USES THEREOF” (The Scripps Research Institute, priority 2017, published 2021)

Key:
Test in all cases: competitive isoTOP-ABPP
Format in all cases: binding
[1] = target: T1, G6PD Glucose-6-phosphate 1-dehydrogenase (Homo sapiens, UniProt P11413); settings: 50 uM, in vitro; for R value (DMSO/fragment) for probe 1 labeling: P11413_K171; for R value (DMSO/fragment) for probe 1 labeling / isoTOP-ABPP reactivity ratio at lysine P11413_K171: 231 sol
T1 construct: isoTOP-ABPP experiments performed in cell lysates (in vitro); endogenous in cells; host or cells: MDA-MB-231 soluble lysate
T1 sequence (P11413 whole entry, the tested form may be a part): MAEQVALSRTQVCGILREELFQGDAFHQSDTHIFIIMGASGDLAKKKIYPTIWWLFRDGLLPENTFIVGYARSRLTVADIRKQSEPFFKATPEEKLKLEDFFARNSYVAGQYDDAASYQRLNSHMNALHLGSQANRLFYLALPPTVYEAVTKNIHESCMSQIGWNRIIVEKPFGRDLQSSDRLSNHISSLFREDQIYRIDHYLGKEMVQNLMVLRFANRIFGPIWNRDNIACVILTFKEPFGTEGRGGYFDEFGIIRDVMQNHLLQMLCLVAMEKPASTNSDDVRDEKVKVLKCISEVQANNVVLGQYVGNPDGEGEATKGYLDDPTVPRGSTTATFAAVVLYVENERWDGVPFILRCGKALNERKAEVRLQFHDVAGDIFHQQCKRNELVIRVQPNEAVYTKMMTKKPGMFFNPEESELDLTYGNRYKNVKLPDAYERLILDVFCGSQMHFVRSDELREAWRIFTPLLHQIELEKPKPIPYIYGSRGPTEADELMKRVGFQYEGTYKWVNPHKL
In short: (§1)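 Cell lysate treated in vitro with fragments (50 μM activated esters, 100 μM guanidinylating agents) or DMSO, labelled 1 h at ambient temperature with 0.1 mM STP-alkyne, CuAAC-tagged with light/heavy TEV tags, analysed by MS. R = DMSO/compound MS1 peak-area ratio; lysines with R≥4 called liganded.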

[2] = target: T2, EEF2 Elongation factor 2 (Homo sapiens, UniProt P13639); settings: 50 uM, in vitro; for R value (DMSO/fragment) for probe 1 labeling / isoTOP-ABPP reactivity ratio at lysine P13639_K235 / isoTOP-ABPP reactivity ratio at lysine P13639_K318: 231 sol
T2 construct: isoTOP-ABPP experiments performed in cell lysates (in vitro); endogenous in cells; host or cells: soluble proteome of human cancer cell lines (MDA-MB-231; Ramos and Jurkat also prepared)
In short: as §1

[3] = target: T3, AP1G1 AP-1 complex subunit gamma-1 (Homo sapiens, UniProt O43747); settings: 50 uM, in vitro; for R value (DMSO/fragment) for probe 1 labeling: O43747_K214; for R value (DMSO/fragment) for probe 1 labeling / isoTOP-ABPP reactivity ratio at lysine O43747_K214: 231 sol
T3 construct: isoTOP-ABPP experiments performed in cell lysates (in vitro); endogenous in cells; host or cells: MDA-MB-231 soluble lysate
T3 sequence (O43747 1-822): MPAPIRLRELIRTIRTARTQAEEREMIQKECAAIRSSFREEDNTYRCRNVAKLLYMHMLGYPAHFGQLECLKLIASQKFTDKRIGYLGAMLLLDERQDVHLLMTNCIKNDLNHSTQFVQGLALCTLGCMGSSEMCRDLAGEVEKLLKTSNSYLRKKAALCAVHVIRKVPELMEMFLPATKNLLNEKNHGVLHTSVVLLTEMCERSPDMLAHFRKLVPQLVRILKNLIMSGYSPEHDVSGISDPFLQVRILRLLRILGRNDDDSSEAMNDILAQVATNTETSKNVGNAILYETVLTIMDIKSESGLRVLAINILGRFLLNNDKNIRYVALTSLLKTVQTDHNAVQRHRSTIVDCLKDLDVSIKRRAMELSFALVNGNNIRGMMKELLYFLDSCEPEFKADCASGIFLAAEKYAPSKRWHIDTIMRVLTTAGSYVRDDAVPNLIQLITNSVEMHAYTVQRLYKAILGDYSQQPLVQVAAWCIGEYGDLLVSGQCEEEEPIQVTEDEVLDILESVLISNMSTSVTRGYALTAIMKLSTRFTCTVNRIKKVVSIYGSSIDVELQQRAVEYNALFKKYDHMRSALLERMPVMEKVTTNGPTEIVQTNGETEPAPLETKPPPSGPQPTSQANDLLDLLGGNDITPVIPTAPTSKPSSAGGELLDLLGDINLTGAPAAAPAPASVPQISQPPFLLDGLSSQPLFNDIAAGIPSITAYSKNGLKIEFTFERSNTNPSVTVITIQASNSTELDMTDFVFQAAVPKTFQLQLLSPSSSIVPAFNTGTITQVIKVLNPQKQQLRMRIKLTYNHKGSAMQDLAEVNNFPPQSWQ
In short: as §1

[4] = target: T4, NPEPPS Puromycin-sensitive aminopeptidase (Homo sapiens, UniProt P55786); settings: 50 uM, in vitro; for R value (DMSO/fragment) for probe 1 labeling: P55786_K712; for R value (DMSO/fragment) for probe 1 labeling / isoTOP-ABPP reactivity ratio at lysine P55786_K712: 231 sol
T4 construct: isoTOP-ABPP experiments performed in cell lysates (in vitro); endogenous in cells; host or cells: soluble proteome of human cancer cell lines (MDA-MB-231, Ramos, Jurkat)
T4 sequence (P55786 whole entry, the tested form may be a part): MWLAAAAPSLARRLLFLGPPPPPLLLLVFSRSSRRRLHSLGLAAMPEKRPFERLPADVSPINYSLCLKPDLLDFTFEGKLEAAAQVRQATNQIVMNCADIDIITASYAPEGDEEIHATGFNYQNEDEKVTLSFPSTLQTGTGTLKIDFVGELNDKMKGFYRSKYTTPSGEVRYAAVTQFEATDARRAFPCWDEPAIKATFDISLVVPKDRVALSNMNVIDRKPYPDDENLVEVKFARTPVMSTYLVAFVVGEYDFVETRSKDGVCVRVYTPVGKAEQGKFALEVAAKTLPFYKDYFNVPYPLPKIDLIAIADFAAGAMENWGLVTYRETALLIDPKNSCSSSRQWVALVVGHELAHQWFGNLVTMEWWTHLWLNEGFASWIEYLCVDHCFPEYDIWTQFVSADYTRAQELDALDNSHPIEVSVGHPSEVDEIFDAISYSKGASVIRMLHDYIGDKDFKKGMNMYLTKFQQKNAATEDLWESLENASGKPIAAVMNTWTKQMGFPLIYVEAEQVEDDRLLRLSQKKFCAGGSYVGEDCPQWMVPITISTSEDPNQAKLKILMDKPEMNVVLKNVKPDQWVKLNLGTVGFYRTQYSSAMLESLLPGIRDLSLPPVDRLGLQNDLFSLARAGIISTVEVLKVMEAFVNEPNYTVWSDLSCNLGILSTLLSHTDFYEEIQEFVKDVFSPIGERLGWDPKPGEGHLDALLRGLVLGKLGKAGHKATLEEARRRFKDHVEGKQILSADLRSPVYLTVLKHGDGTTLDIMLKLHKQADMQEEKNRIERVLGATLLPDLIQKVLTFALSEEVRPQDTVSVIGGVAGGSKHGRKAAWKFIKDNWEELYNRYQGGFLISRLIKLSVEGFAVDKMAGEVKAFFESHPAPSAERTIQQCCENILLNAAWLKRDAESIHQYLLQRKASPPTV
In short: as §1

Row | SMILES | R value (DMSO/fragment) for probe 1 labeling [1] | R value (DMSO/fragment) for probe 1 labeling ([2]; P13639_K235) | R value (DMSO/fragment) for probe 1 labeling ([2]; P13639_K318) | R value (DMSO/fragment) for probe 1 labeling [3] | R value (DMSO/fragment) for probe 1 labeling [4] | isoTOP-ABPP reactivity ratio at lysine P11413_K171 [1] | isoTOP-ABPP reactivity ratio at lysine P13639_K235 [2] | isoTOP-ABPP reactivity ratio at lysine P13639_K318 [2] | isoTOP-ABPP reactivity ratio at lysine O43747_K214 [3] | isoTOP-ABPP reactivity ratio at lysine P55786_K712 [4] | also measured
1 | O=C(CCc1cn(-c2ccccc2)nc1-c1ccccc1)Oc1c(F)c(F)c(F)c(F)c1F [fragment 19, Pentafluorophenyl 3-(1,3-diphenyl-1H-pyrazol-4-yl)propanoate] | 0.9 | 1.2 | 1.1 | 1.0 | 1.0 | – | – | – | – | – | –
2 | O=C(Oc1c(F)c(F)c(F)c(F)c1F)C(c1ccccc1)c1ccccc1 [fragment 20, Pentafluorophenyl 2,2-diphenylacetate] | 0.7 | 1.1 | 1.1 | 0.9 | 0.9 | – | – | – | – | – | –
3 | O=C(Oc1c(F)c(F)c(F)c(F)c1F)c1cc(C(F)(F)F)cc(C(F)(F)F)c1 [fragment 21, Pentafluorophenyl 3,5-bis(trifluoromethyl)benzoate] | 0.8 | 1.1 | 1.2 | 0.9 | 0.9 | – | – | – | – | – | –
4 | Cn1cc(CC(=O)Oc2c(F)c(F)c(F)c(F)c2F)c2ccccc21 [fragment 22, Pentafluorophenyl 2-(1-methyl-1H-indol-3-yl)acetate] | 0.7 | 2.9 | 5.6 | 1.1 | 1.3 | – | – | – | – | – | –
5 | COc1cc(CCC(=O)Oc2c(F)c(F)c(F)c(F)c2F)cc(OC)c1OC [fragment 23, Pentafluorophenyl 3-(3,4,5-trimethoxyphenyl)propanoate] | 2.1 | 1.6 | 1.6 | 1.1 | 1.2 | – | – | – | – | – | –
6 | O=C(Oc1c(F)c(F)c(F)c(F)c1F)C1CCN(C(=O)OCc2ccccc2)CC1 [fragment 24, 1-Benzyl 4-(pentafluorophenyl) piperidine-1,4-dicarboxylate] | – | – | – | – | – | 0.9 | 1.1 | 1.2 | 1.0 | 1.0 | –
7 | O=C(Oc1c(F)c(F)c(F)c(F)c1F)c1ccc2ccccc2n1 [fragment 25, Pentafluorophenyl quinoline-2-carboxylate] | – | – | – | – | – | 0.8 | 1.9 | 2.3 | 1.0 | 1.1 | –
8 | O=C(CCc1coc2cc(F)ccc2c1=O)Oc1c(F)c(F)c(F)c(F)c1F [fragment 26, Pentafluorophenyl 3-(7-fluoro-4-oxo-4H-chromen-3-yl)propanoate] | – | – | – | – | – | 1.0 | 1.3 | 1.1 | 1.1 | 1.2 | –
9 | O=C(CN1C(=O)c2ccccc2C1=O)Oc1c(F)c(F)c(F)c(F)c1F [fragment 27, Pentafluorophenyl 2-(1,3-dioxoisoindolin-2-yl)acetate] | – | – | – | – | – | 0.9 | 5.7 | – | 0.9 | 1.2 | –
10 | CCn1cc(C(=O)Oc2c(F)c(F)c(F)c(F)c2F)c(=O)c2ccc(C)nc21 [fragment 28, Pentafluorophenyl 1-ethyl-7-methyl-4-oxo-1,4-dihydro-1,8-naphthyridine-3-carboxylate] | – | – | – | – | – | 0.9 | 1.4 | 1.6 | 1.0 | 1.0 | –
11 | O=C(CCc1cn(-c2ccccc2)nc1-c1ccccc1)Oc1ccc([N+](=O)[O-])cc1[N+](=O)[O-] [fragment 29, 2,4-Dinitrophenyl 3-(1,3-diphenyl-1H-pyrazol-4-yl)propanoate] | – | – | – | – | – | 0.9 | 1.0 | 0.9 | 1.0 | 1.1 | –
12 | O=C(Oc1ccc([N+](=O)[O-])cc1[N+](=O)[O-])C(c1ccccc1)c1ccccc1 [fragment 30, 2,4-Dinitrophenyl 2,2-diphenylacetate] | – | – | – | – | – | 3.9 | 1.4 | 1.4 | 1.1 | 1.5 | –
13 | O=C(Oc1ccc([N+](=O)[O-])cc1[N+](=O)[O-])c1cc(C(F)(F)F)cc(C(F)(F)F)c1 [fragment 31, 2,4-Dinitrophenyl 3,5-bis(trifluoromethyl)benzoate] | – | – | – | – | – | 1.1 | 1.1 | 1.2 | 0.9 | 1.1 | –
14 | Cn1cc(CC(=O)Oc2ccc([N+](=O)[O-])cc2[N+](=O)[O-])c2ccccc21 [fragment 32, 2,4-Dinitrophenyl 2-(1-methyl-1H-indol-3-yl)acetate] | – | – | – | – | – | 0.9 | 1.4 | 1.5 | 6.6 | 1.4 | –
15 | COc1cc(CCC(=O)Oc2ccc([N+](=O)[O-])cc2[N+](=O)[O-])cc(OC)c1OC [fragment 33, 2,4-Dinitrophenyl 3-(3,4,5-trimethoxyphenyl)propanoate] | – | – | – | – | – | 16.3 | 1.0 | 0.9 | 1.7 | 1.2 | –
16 | O=C(Oc1ccc([N+](=O)[O-])cc1[N+](=O)[O-])C1CCN(C(=O)OCc2ccccc2)CC1 [fragment 34, 1-Benzyl 4-(2,4-dinitrophenyl) piperidine-1,4-dicarboxylate] | – | – | – | – | – | – | – | – | – | – | isoTOP-ABPP ratio (R) at liganded lysine P11413_K171 ([1]; sol, 231): 0.9; isoTOP-ABPP ratio (R) at liganded lysine P13639_K235 ([2]; sol, 231): 1.0; isoTOP-ABPP ratio (R) at liganded lysine O43747_K214 ([3]; sol, 231): 1.7; isoTOP-ABPP ratio (R) at liganded lysine P55786_K712 ([4]; sol, 231): 11.0
